According to patent publication US20210348164A1, “ENDOGENOUS CYTOPLASMIC ALU COMPLEMENTARY DNA IN AGE-RELATED MACULAR DEGENERATION” (University of Virginia Patent Foundation, priority 2018, published 2021):
“Also recorded” adds a separate entry of the source.

Experiments:
L1 reverse transcriptase = L1 reverse transcriptase (Homo sapiens, UniProt O00370); conditions: Merluzzi et al., 1990; Dai et al., 2011; cited from earlier work
NLRP3 inflammasome = experiment: Caspase-1 activation in bone marrow-derived macrophages treated with LPS and ATP (immunoblot); assay type: cell-based; conditions: primary mouse BMDM; LPS and ATP stimulation
Protocol: Western blotting. Cells and tissue were homogenized in RIPA buffer (Sigma-Aldrich) with protease and phosphatase inhibitors (Roche) or lysed directly in Laemmli buffer. Protein concentration was determined using Pierce BCA Protein Assay Kit (Thermo Fisher Scientific). Equal quantities of protein (10-50 μg) prepared in Laemmli buffer were resolved by SDS-PAGE on NOVEX® Tris-Glycine Gels (Invitrogen), or MINI-PROTEAN® TGX™ Precast Protein Gels (Bio-Rad Laboratories, Inc., Hercules, Calif., United States of America) and transferred onto Immobilon-FL PVDF membranes (0.2 or 0.45 μm; MilliporeSigma, Burlington, Mass., United States of America). The transferred membranes were blocked in ODYSSEY® Blocking Buffer (PBS) for 1 hour at room temperature and then incubated with primary antibody at 4° C. overnight. Immunoreactive bands were visualized using species-specific secondary antibodies conjugated with IRDYE®. The blot images were captured on ODYSSEY® imaging systems. […]

[1] = tested on: Alu RNA-induced RPE degeneration; experiment: Alu RNA-induced RPE degeneration in wild-type mice (fundus photography, ZO-1 flat mounts); assay type: in vivo, mouse; conditions: WT mice; intravitreous; low (25 μmol) doses
[2] = tested on: reverse transcriptase activity of cytoplasmic fractions of F9 cells; experiment: In vitro reverse transcriptase activity of cytoplasmic fractions (Alu RNA-templated, Alu-specific qPCR); assay type: biochemical, mouse
Protocol: In vitro reverse transcriptase (RT) activity. In vitro reverse transcriptase (RT) activity in nuclear and cytoplasmic protein fractions was assessed using an Alu RNA-templated reaction. The RT reaction was carried out in a 20 μl reaction mix containing Alu RNA template (10 ng); Alu primer ([…]); dNTPs mix; cytoplasmic or nuclear protein, and Quantiscript RT Buffer (Qiagen). The reaction mixture was incubated at 42° C. for 30 minutes. The resulting cDNA was quantified by qPCR using Alu RNA template-specific primers. The reaction to evaluate self-priming activity of Alu RNA was carried out in the absence of priming oligos in a 20 μl reaction mix containing: Alu RNA with 3′-U tail; dNTP mix; cytoplasmic protein from mouse RPE cells; and Quantiscript RT Buffer (Qiagen) as described above. The resulting cDNA product was quantified by qPCR using Alu RNA template-specific primers. Alu RNA tailed on the 3′ end with chain terminator dideoxy thymidine base (ddTTP) was generated using TdT (New England Biolabs (NEB)) according to the manufacturer's instructions. Alu RNA tailed on the 3′ end with chain terminator cordycepin tri-phosphate was generated using PAP (NEB) according to the manufacturer's instructions.

Chain of L1 reverse transcriptase (O00370 whole entry, looked up): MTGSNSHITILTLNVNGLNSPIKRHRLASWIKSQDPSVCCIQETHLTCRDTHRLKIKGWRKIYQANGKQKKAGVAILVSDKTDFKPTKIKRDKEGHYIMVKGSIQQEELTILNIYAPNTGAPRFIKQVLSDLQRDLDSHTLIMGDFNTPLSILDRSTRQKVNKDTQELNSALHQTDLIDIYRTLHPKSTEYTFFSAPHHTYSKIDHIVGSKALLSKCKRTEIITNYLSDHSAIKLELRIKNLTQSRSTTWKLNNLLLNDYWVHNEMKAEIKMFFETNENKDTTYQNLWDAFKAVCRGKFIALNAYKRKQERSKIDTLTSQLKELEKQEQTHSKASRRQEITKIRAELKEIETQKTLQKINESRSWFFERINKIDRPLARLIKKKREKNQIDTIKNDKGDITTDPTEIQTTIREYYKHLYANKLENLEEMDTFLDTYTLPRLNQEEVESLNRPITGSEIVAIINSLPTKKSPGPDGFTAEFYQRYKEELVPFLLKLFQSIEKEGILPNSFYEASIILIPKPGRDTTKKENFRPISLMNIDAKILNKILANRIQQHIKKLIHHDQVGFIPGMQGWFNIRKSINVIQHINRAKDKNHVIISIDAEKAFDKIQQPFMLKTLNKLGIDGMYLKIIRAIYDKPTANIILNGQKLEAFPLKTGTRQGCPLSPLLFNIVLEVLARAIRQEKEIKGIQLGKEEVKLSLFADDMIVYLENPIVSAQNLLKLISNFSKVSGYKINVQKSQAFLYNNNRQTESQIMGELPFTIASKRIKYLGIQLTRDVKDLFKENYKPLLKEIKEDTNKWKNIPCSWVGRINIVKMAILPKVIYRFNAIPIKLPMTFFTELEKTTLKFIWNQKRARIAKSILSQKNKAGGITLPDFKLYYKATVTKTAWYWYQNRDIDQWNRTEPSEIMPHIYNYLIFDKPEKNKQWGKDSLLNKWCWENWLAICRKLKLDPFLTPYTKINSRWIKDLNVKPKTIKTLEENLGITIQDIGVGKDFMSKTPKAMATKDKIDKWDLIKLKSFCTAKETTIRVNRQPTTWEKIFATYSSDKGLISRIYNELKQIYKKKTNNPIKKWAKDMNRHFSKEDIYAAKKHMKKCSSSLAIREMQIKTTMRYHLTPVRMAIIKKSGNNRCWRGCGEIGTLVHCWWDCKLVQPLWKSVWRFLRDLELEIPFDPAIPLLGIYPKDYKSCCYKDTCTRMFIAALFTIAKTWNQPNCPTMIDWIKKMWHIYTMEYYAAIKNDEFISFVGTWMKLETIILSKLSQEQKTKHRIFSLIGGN

Molecule	inhibition of L1 reverse transcriptase (L1 reverse transcriptase)	caspase-1 activation / NLRP3 inflammasome activation (NLRP3 inflammasome)	Alu RNA-induced RPE degeneration [1]	Alu cDNA formation from Alu RNA (reverse transcriptase activity) [2]
CC(C)Nc1cccnc1N1CCN(C(=O)c2cc3cc(NS(C)(=O)=O)ccc3[nH]2)CC1 [DLV, delavirdine]	inhibit L1 reverse transcriptase at high doses	did not inhibit NLRP3 inflammasome activation	did not block Alu RNA-induced RPE degeneration at low doses	
O=C1Nc2ccc(Cl)cc2[C@@](C#CC2CC2)(C(F)(F)F)O1 [EFV, efavirenz]	inhibit L1 reverse transcriptase at high doses	did not inhibit NLRP3 inflammasome activation	did not block Alu RNA-induced RPE degeneration at low doses	
Cc1ccnc2c1NC(=O)c1cccnc1N2C1CC1 [NVP, nevirapine]	does not inhibit L1 reverse transcriptase	does not inhibit	did not prevent Alu RNA-induced RPE degeneration at low or high doses	
L1 siRNA: siRNA targeting L1; cholesterol-conjugated mouse L1 siRNA (SEQ ID NOs: 48 and 49) in vivo, human L1 siRNA sequences in human cells (chain 1 ACUAUUACUCUGAUACCTT; chain 2 UGUACUAAGGUCAAAUCTT; cholesterol conjugated, position not given here)				reduced Alu cDNA production; also recorded: reduced Alu cDNA formation
